Measurements as given in patent US12435051B2, “Dual modulator of mGluR5 and 5-HT2A receptor, and use thereof” (Vivozon Inc., priority 2020, dated 2025).

Experiments:
mGluR5 = molecular target: T1, mGluR5 (Homo sapiens, UniProt P41594); assay: Fluorescence-based Ca2+ mobilization assay; type: cell-based; settings: HEK293 cells overexpressing mGluR5; L-glutamate at EC80
T1 construct: expressed in transfected cells; host or cells: HEK293
Experimental: In order to measure the activity on the mGluR5, an experiment was carried out to check the change in the intracellular Ca^2+ level using the HEK293 cell line permanently overexpressing the mGluR5. The cells in the cell culture medium were aliquoted into a 384-well plate coated with poly-D-lysine and cultured in a 37° C. incubator supplied with 5% CO2. The next day, the medium was removed and a dye loading buffer—in which a reagent capable of measuring Ca^2+ was dissolved—was added, and then incubated at 37° C. for 60 minutes. The test compounds were dissolved in 100% DMSO at a final concentration of 10 mM to make a stock solution. The starting concentration of […] was prepared from the stock solution, followed by serial dilutions to prepare working solutions (test compound working solutions). The test compound working solutions were added to the cells that were incubated in the dye loading buffer, which were maintained for 30 minutes at room temperature in a light-shielding state before measurement. The Ca^2+ level change induced by L-glutamate at EC80 concentration was measured for 2 minutes using FLIPR Tetra (MDS Analytical Technologies). The fluorescent Ca^2+ signal values in the presence of the test compounds were normalized to the fluorescent signal elicited by […] concentration of L-glutamate as 100% and that elicited by vehicle as 0% to estimate % inhibition of the test compounds. The efficacy of the test compounds was calculated as IC50 values and represented in Table 1. (+: 1,000-2,000 nM, ++: 500-1,000 nM, +++: 100-500 nM, ++++: less than 100 nM).

human 5-HT2AR = molecular target: T2, human 5-HT2AR (Homo sapiens, UniProt P28223); assay: HTRF-based IP1 accumulation assay (5-HT2AR antagonistic effect); type: cell-based; settings: HEK293 cells overexpressing human 5-HT2AR; serotonin at EC80
T2 construct: expressed in transfected cells; host or cells: HEK293
Experimental: The 5-HT2AR antagonistic effect of the test compounds was confirmed by measuring the production amount of IP1 using the HEK293 cell line permanently overexpressing the human 5-HT2AR. The test compounds were dissolved in 100% DMSO to a final concentration of 10 mM. The starting concentration of 10 μM was prepared from the stock solution, followed by serial dilutions to prepare working solutions in a buffer containing lithium chloride (LiCl). The cells and compounds prepared in the test buffer were placed in a 96-well plate and incubated at room temperature for 10 minutes. Serotonin of EC80 concentration was added, followed by incubation at 37° C. for 30 minutes in a light-shielding state. To measure IP1 accumulation in cells, JP1-d2 acceptor and IP1-Cryptate donor-which are HTRF-based substances for fluorescence signals-were added and incubated for 1 hour at room temperature in a light-shielded state. The fluorescent emission signals of acceptor and donor were detected, and HTRF ratio values were substracted by mean value of serotonin control. The percentage of activation was calculated by normalization of the serotonin control (0%) and IP1 control (100%). The IC50 values of the test compounds are represented in Table 1. (+: 1,000-2,000 nM, ++: 500-1,000 nM, +++: 100-500 nM, ++++: less than 100 nM).

T2 sequence (P28223 whole entry): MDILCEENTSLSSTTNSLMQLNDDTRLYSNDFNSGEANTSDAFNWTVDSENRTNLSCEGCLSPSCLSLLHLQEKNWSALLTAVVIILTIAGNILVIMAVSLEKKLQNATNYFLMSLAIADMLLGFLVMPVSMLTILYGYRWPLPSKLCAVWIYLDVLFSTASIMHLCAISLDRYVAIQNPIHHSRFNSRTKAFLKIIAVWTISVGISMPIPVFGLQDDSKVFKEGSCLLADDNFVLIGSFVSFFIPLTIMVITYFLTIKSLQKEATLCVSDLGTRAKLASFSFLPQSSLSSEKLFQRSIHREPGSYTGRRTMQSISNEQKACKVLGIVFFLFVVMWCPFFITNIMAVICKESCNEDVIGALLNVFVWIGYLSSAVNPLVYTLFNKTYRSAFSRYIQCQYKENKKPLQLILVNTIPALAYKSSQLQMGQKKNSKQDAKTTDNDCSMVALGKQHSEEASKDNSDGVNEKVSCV
T1 sequence (P41594 21-1212): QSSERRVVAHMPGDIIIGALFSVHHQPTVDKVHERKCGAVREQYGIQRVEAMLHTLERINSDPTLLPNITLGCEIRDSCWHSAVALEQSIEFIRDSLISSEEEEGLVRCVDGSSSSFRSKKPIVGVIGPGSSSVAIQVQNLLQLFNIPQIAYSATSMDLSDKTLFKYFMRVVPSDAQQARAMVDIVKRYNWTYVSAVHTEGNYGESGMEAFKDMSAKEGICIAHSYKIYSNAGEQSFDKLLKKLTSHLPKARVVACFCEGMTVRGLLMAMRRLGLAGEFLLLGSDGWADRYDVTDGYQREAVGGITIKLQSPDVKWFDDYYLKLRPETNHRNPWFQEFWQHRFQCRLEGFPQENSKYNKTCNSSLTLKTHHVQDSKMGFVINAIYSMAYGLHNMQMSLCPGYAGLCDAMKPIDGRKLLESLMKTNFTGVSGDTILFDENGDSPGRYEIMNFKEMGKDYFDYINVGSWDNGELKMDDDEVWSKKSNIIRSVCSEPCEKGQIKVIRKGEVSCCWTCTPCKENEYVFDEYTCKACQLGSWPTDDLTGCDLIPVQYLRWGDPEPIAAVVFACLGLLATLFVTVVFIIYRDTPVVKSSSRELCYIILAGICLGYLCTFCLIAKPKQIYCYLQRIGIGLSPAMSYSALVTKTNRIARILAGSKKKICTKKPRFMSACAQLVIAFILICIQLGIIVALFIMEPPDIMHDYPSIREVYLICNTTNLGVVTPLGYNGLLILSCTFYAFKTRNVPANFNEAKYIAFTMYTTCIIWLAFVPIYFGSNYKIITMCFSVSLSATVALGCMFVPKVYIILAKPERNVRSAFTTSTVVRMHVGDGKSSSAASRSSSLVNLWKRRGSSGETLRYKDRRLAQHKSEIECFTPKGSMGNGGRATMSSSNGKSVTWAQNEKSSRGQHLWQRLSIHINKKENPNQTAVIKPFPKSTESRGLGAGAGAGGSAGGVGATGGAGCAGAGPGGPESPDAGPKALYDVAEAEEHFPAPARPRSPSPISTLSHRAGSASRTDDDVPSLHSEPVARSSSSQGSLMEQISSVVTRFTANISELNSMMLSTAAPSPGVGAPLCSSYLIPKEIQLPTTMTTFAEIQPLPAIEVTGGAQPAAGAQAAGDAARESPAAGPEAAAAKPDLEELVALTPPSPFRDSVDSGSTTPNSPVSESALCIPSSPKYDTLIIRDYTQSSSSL

Row | SMILES | IC50 (mGluR5) | IC50 (human 5-HT2AR)
1 | O=C(NCC1(F)CCCCC1)c1ccc(C#Cc2ccc(F)cc2F)cc1 [Example 73, 4-((2,4-difluorophenyl)ethynyl)-N-((1-fluorocyclohexyl)methyl)benzamide] | < 100 nM | 1000 to 2000 nM
2 | O=C(NCC1(O)CCCCC1)c1ccc(C#Cc2ccccc2F)cc1 [Example 32, 4-((2-fluorophenyl)ethynyl)-N-((1-hydroxycyclohexyl)methyl)benzamide] | < 100 nM | 500 to 1000 nM
3 | NC(=O)CC1(CNC(=O)c2ccc(C#Cc3ccccc3F)cc2)CCOCC1 [Example 78, N-((4-(2-amino-2-oxoethyl)tetrahydro-2H-pyran-4-yl)methyl)-4-((2-fluorophenyl)ethynyl)benzamide] | 100 to 500 nM | 1000 to 2000 nM
4 | CNC(=O)C1(CNC(=O)c2ccc(C#Cc3ccccc3F)cc2)CCOCC1 [Example 53, 4-((4-((2-fluorophenyl)ethynyl)benzamido)methyl)-N-methyltetrahydro-2H-pyran-4-carboxamide] | 500 to 1000 nM | 1000 to 2000 nM
5 | CC1CCC(CNC(=O)c2ccc(C#Cc3ccccc3F)cc2)(NC2CC2)CC1 (centres unmarked) [Example 26, N-((1-(cyclopropylamino)-4-methylcyclohexyl)methyl)-4-((2-fluorophenyl)ethynyl)benzamide] | 1000 to 2000 nM | < 100 nM
6 | Cc1cc(C#Cc2ccc(C(=O)NCC3(NC4CC4)CCCC3)cc2)ccn1 [Example 21, N-((1-(cyclopropylamino)cyclopentyl)methyl)-4-((2-methylpyridin-4-yl)ethynyl)benzamide] | 1000 to 2000 nM | 500 to 1000 nM
7 | O=C(O)CC1(CNC(=O)c2ccc(C#Cc3ccccc3F)cc2)CCCCC1 [Example 76, 2-(1-((4-((2-fluorophenyl)ethynyl)benzamido)methyl)cyclohexyl)acetic acid] | 500 to 1000 nM | 100 to 500 nM

Second part, the compound after the results:

Row | IC50 (mGluR5) | IC50 (human 5-HT2AR) | SMILES
8 | < 100 nM | 1000 to 2000 nM | O=C(NC[C@@H]1CCCOC1)c1ccc(C#Cc2ccccc2F)cc1 [Example 91, (S)-4-((2-fluorophenyl)ethynyl)-N-((tetrahydro-2H-pyran-3-yl)methyl)benzamide]
9 | < 100 nM | 100 to 500 nM | O=C(NC[C@H]1CCOC1)c1ccc(C#Cc2ccc(F)cc2)cc1 [Example 101, (R)-4-((4-fluorophenyl)ethynyl)-N-((tetrahydrofuran-3-yl)methyl)benzamide]
10 | 100 to 500 nM | 500 to 1000 nM | [2H]C([2H])(NC(=O)c1ccc(C#Cc2ccccc2F)cc1)C1CCOCC1 [Example 68, 4-((2-fluorophenyl)ethynyl)-N-((tetrahydro-2H-pyran-4-yl)methyl-d2)benzamide]
11 | < 100 nM | 100 to 500 nM | O=C(NC[C@H]1CCCOC1)c1ccc(C#Cc2ccc(F)cc2)cc1 [Example 99, (R)-4-((4-fluorophenyl)ethynyl)-N-((tetrahydro-2H-pyran-3-yl)methyl)benzamide]
12 | 100 to 500 nM | < 100 nM | CCC1(CNC(=O)c2ccc(C#Cc3ccc(F)cc3F)cc2)COC1 [Example 122, 4-((2,4-difluorophenyl)ethynyl)-N-((3-ethyloxetan-3-yl)methyl)benzamide]
13 | 100 to 500 nM | < 100 nM | O=C(NCC1CC(F)(F)C1)c1ccc(C#Cc2ccc(F)cc2F)cc1 [Example 120, N-((3,3-difluorocyclobutyl)methyl)-4-((2,4-difluorophenyl)ethynyl)benzamide]
14 | 1000 to 2000 nM | < 100 nM | O=C(NCC1CCO1)c1ccc(C#Cc2ccc(F)cc2F)cc1 (centres unmarked) [Example 118, 4-((2,4-difluorophenyl)ethynyl)-N-(oxetan-2-ylmethyl)benzamide]
15 | < 100 nM | 500 to 1000 nM | O=C(NCC1(CF)CCOCC1)c1ccc(C#Cc2ccccc2F)cc1 [Example 50, N-((4-(fluoromethyl)tetrahydro-2H-pyran-4-yl)methyl)-4-((2-fluorophenyl)ethynyl)benzamide]
16 | 500 to 1000 nM | < 100 nM | O=C(NC[C@@H]1CCCO1)c1ccc(C#Cc2ccc(F)cc2F)cc1 [Example 117, (S)-4-((2,4-difluorophenyl)ethynyl)-N-((tetrahydrofuran-2-yl)methyl)benzamide]
